*1 amine or outer side, *2 acyl side, *3 side chain or, on linkers, in order; H or OH if unused. Where a SMILES comes first, the peptide text is derived from it. Bridges are numbered along the chain shown (N, C = ends). [ ]: non-standard residue; d: D form. ξ: configuration not given here. X2 = CCCCCCCCCCCC(CC(=O)[*:1])O[*:2]; ξAsp(3ξ-OH) = NC(C(=O)O)C(O)C(=O)O; X1 = O=C(C1C(O)CCN1[*:1])[*:2]
Columns and labels:
Type in all cases: cell-based
[1] = tested on: Bacteroides fragilis A22695; assay: MIC, serial two-fold dilution method (anaerobic); conditions: Bacteroides fragilis A22695, GAM agar medium, inoculum 10^7-10^8; for MIC: read-out: minimum inhibitory concentration (MIC)
[2] = tested on: Bacteroides fragilis A21900; assay: MIC, serial two-fold dilution method (anaerobic); conditions: Bacteroides fragilis A21900, GAM agar medium, inoculum 10^7-10^8; for MIC: read-out: minimum inhibitory concentration (MIC)
Micrococcus flavus D-12 = assay: MIC, serial two-fold dilution method (aerobic); conditions: Micrococcus flavus D-12, Mueller-Hinton agar, inoculum 10^4; for MIC: D12, read-out: minimum inhibitory concentration (MIC)
[3] = tested on: Bacteroides fragilis A20929; assay: MIC, serial two-fold dilution method (anaerobic); conditions: Bacteroides fragilis A20929, GAM agar medium, inoculum 10^7-10^8; for MIC: read-out: minimum inhibitory concentration (MIC)
[4] = tested on: Fusobacterium necrophorum A20013; assay: MIC, serial two-fold dilution method (anaerobic); conditions: Fusobacterium necrophorum A20013, GAM agar medium, inoculum 10^7-10^8; for MIC: read-out: minimum inhibitory concentration (MIC)
[5] = tested on: Pseudomonas aeruginosa D-113; assay: MIC, serial two-fold dilution method (aerobic); conditions: Pseudomonas aeruginosa D-113, Mueller-Hinton agar, inoculum 10^4; for MIC: D113, read-out: minimum inhibitory concentration (MIC)
[6] = tested on: Peptococcus magnas A21676; assay: MIC, serial two-fold dilution method (anaerobic); conditions: Peptococcus magnas A21676, GAM agar medium, inoculum 10^7-10^8; for MIC: read-out: minimum inhibitory concentration (MIC)
Proteus vulgaris A9436 = assay: MIC, serial two-fold dilution method (aerobic); conditions: Proteus vulgaris A9436, Mueller-Hinton agar, inoculum 10^4; for MIC: read-out: minimum inhibitory concentration (MIC)
[7] = tested on: Staphylococcus aureus A9601; assay: MIC, serial two-fold dilution method (aerobic); conditions: Staphylococcus aureus A9601, Mueller-Hinton agar, inoculum 10^4; for MIC: read-out: minimum inhibitory concentration (MIC)
[8] = tested on: Bacteroides ovatus A22400; assay: MIC, serial two-fold dilution method (anaerobic); conditions: Bacteroides ovatus A22400, GAM agar medium, inoculum 10^7-10^8; for MIC: read-out: minimum inhibitory concentration (MIC)
[9] = tested on: Peptostreptococcus anaerobius A21905; assay: MIC, serial two-fold dilution method (anaerobic); conditions: Peptostreptococcus anaerobius A21905, GAM agar medium, inoculum 10^7-10^8; for MIC: read-out: minimum inhibitory concentration (MIC)
[10] = tested on: Staphylococcus aureus A22421; assay: MIC, serial two-fold dilution method (aerobic); conditions: Staphylococcus aureus A22421, Mueller-Hinton agar, inoculum 10^4; for MIC: read-out: minimum inhibitory concentration (MIC)
[11] = tested on: Bacteroides fragilis A22053; assay: MIC, serial two-fold dilution method (anaerobic); conditions: Bacteroides fragilis A22053, GAM agar medium, inoculum 10^7-10^8; for MIC: read-out: minimum inhibitory concentration (MIC)
[12] = tested on: Veillonella parvula A20010; assay: MIC, serial two-fold dilution method (anaerobic); conditions: Veillonella parvula A20010, GAM agar medium, inoculum 10^7-10^8; for MIC: read-out: minimum inhibitory concentration (MIC)
[13] = tested on: Fusobacterium nucleatum A21906; assay: MIC, serial two-fold dilution method (anaerobic); conditions: Fusobacterium nucleatum A21906, GAM agar medium, inoculum 10^7-10^8; for MIC: read-out: minimum inhibitory concentration (MIC)
Escherichia coli NIHJ = assay: MIC, serial two-fold dilution method (aerobic); conditions: Escherichia coli NIHJ, Mueller-Hinton agar, inoculum 10^4; for MIC: read-out: minimum inhibitory concentration (MIC)
[14] = tested on: Staphylococcus aureus BX-1633; assay: MIC, serial two-fold dilution method (aerobic); conditions: Staphylococcus aureus BX-1633, Mueller-Hinton agar, inoculum 10^4; for MIC: BX1633, read-out: minimum inhibitory concentration (MIC)
[15] = tested on: Staphylococcus aureus A9856; assay: MIC, serial two-fold dilution method (aerobic); conditions: Staphylococcus aureus A9856, Mueller-Hinton agar, inoculum 10^4; for MIC: read-out: minimum inhibitory concentration (MIC)
Proteus mirabilis A9554 = assay: MIC, serial two-fold dilution method (aerobic); conditions: Proteus mirabilis A9554, Mueller-Hinton agar, inoculum 10^4; for MIC: read-out: minimum inhibitory concentration (MIC)
[16] = tested on: Bacteroides fragilis A22533; assay: MIC, serial two-fold dilution method (anaerobic); conditions: Bacteroides fragilis A22533, GAM agar medium, inoculum 10^7-10^8; for MIC: read-out: minimum inhibitory concentration (MIC)
[17] = tested on: Clostridium perfringens A9635; assay: microbe, parasite or virus in culture; conditions: for minimum inhibitory concentration (MIC): Clostridium perfringens A9635, GAM agar medium, inoculum 10^7-10^8; for MIC: Clostridium perfringens, A9635, read-out: minimum inhibitory concentration (MIC)
[18] = tested on: Staphylococcus aureus Smith; assay: MIC, serial two-fold dilution method (aerobic); conditions: Staphylococcus aureus Smith, Mueller-Hinton agar, inoculum 10^4; for MIC: read-out: minimum inhibitory concentration (MIC)
[19] = tested on: Staphylococcus aureus A20239; assay: MIC, serial two-fold dilution method (aerobic); conditions: Staphylococcus aureus A20239, Mueller-Hinton agar, inoculum 10^4; for MIC: read-out: minimum inhibitory concentration (MIC)
[20] = tested on: Peptostreptococcus intermedius A21881; assay: MIC, serial two-fold dilution method (anaerobic); conditions: Peptostreptococcus intermedius A21881, GAM agar medium, inoculum 10^7-10^8; for MIC: read-out: minimum inhibitory concentration (MIC)
[21] = tested on: Klebsiella pneumoniae D-11; assay: MIC, serial two-fold dilution method (aerobic); conditions: Klebsiella pneumoniae D-11, Mueller-Hinton agar, inoculum 10^4; for MIC: D11, read-out: minimum inhibitory concentration (MIC)
[22] = tested on: Clostridium acidiurici A9560; assay: MIC, serial two-fold dilution method (anaerobic); conditions: Clostridium acidiurici A9560, GAM agar medium, inoculum 10^7-10^8; for MIC: Gottschalkia acidurici, read-out: minimum inhibitory concentration (MIC)
[23] = tested on: Propionibacterium acnes A21953; assay: MIC, serial two-fold dilution method (anaerobic); conditions: Propionibacterium acnes A21953, GAM agar medium, inoculum 10^7-10^8; for MIC: Cutibacterium acnes, read-out: minimum inhibitory concentration (MIC)
[24] = tested on: Propionibacterium acnes A22650; assay: MIC, serial two-fold dilution method (anaerobic); conditions: Propionibacterium acnes A22650, GAM agar medium, inoculum 10^7-10^8; for MIC: Cutibacterium acnes, read-out: minimum inhibitory concentration (MIC)
[25] = tested on: Staphylococcus aureus A20701; assay: MIC, serial two-fold dilution method (aerobic); conditions: Staphylococcus aureus A20701, Mueller-Hinton agar, inoculum 10^4; for MIC: read-out: minimum inhibitory concentration (MIC)

CCCCCCCCCCCC1CC(=O)N2CCCC2C(=O)NC(CO)C(=O)N2CCCC2C(=O)NC(CCCNC(=N)N)C(=O)NC(C(O)C(=O)O)C(=O)NC(CO)C(=O)N2CCC(O)C2C(=O)NC(C(O)C(=O)O)C(=O)O1 (centres unmarked) [Bu-2517] (PSPR[ξAsp(3ξ-OH)]S[X1][ξAsp(3ξ-OH)]; linker N-C via X2; configuration not given here)
0.8 µg/mL: minimum inhibitory concentration (MIC) [9] | minimum inhibitory concentration (MIC) [10] | minimum inhibitory concentration (MIC) [15] | minimum inhibitory concentration (MIC) [24]
< 0.05 µg/mL: minimum inhibitory concentration (MIC) (Micrococcus flavus D-12)
12.5 µg/mL: minimum inhibitory concentration (MIC) [13]
1.6 µg/mL: minimum inhibitory concentration (MIC) [6] | minimum inhibitory concentration (MIC) [7] | minimum inhibitory concentration (MIC) [12] | minimum inhibitory concentration (MIC) [14] | minimum inhibitory concentration (MIC) [17] | minimum inhibitory concentration (MIC) [18] | minimum inhibitory concentration (MIC) [19] | minimum inhibitory concentration (MIC) [22] | minimum inhibitory concentration (MIC) [25]
3.1 µg/mL: minimum inhibitory concentration (MIC) [3] | minimum inhibitory concentration (MIC) [20]
6.3 µg/mL: minimum inhibitory concentration (MIC) [2] | minimum inhibitory concentration (MIC) [23]
> 100 µg/mL: minimum inhibitory concentration (MIC) [1] | minimum inhibitory concentration (MIC) [4] | minimum inhibitory concentration (MIC) [5] | minimum inhibitory concentration (MIC) (Proteus vulgaris A9436) | minimum inhibitory concentration (MIC) [8] | minimum inhibitory concentration (MIC) [11] | minimum inhibitory concentration (MIC) (Escherichia coli NIHJ) | minimum inhibitory concentration (MIC) (Proteus mirabilis A9554) | minimum inhibitory concentration (MIC) [16] | minimum inhibitory concentration (MIC) [21]

CC1(C)S[C@@H]2[C@H](NC(=O)[C@H](N)c3ccccc3)C(=O)N2[C@H]1C(=O)O [Ampicillin]
< 0.0063 µg/mL: MIC [23]
25 µg/mL: MIC [8] | MIC [25]
6.3 µg/mL: MIC [11]
0.8 µg/mL: MIC [3] | MIC (Proteus mirabilis A9554) | MIC [21] | MIC [22]
0.4 µg/mL: MIC (Proteus vulgaris A9436) | MIC [7] | MIC [12] | MIC (Escherichia coli NIHJ)
0.2 µg/mL: MIC [2] | MIC [17]
3.1 µg/mL: MIC [14]
0.1 µg/mL: MIC (Micrococcus flavus D-12) | MIC [6] | MIC [9] | MIC [20]
12.5 µg/mL: MIC [10] | MIC [13]
> 100 µg/mL: MIC [1] | MIC [4] | MIC [5] | MIC [16]
1.6 µg/mL: MIC [19]
0.05 µg/mL: MIC [15] | MIC [18] | MIC [24]

O=C(N[C@H](CO)[C@H](O)c1ccc([N+](=O)[O-])cc1)C(Cl)Cl [Chloramphenicol]
3.1 µg/mL: MIC [1] | MIC [2] | MIC [3] | MIC (Proteus vulgaris A9436) | MIC [11] | MIC [12] | MIC [15] | MIC [16] | MIC [17] | MIC [18] | MIC [20]
> 100 µg/mL: MIC [5]
0.4 µg/mL: MIC [24]
6.3 µg/mL: MIC [4] | MIC [7] | MIC [10] | MIC [13] | MIC [14] | MIC [19] | MIC [22]
1.6 µg/mL: MIC (Micrococcus flavus D-12) | MIC [6] | MIC [8] | MIC [9] | MIC [21] | MIC [23]
12.5 µg/mL: MIC (Proteus mirabilis A9554)
0.8 µg/mL: MIC (Escherichia coli NIHJ)
50 µg/mL: MIC [25]

Amphomycin
6.3 µg/mL: minimum inhibitory concentration (MIC) [6] | minimum inhibitory concentration (MIC) [12] | minimum inhibitory concentration (MIC) [13] | minimum inhibitory concentration (MIC) [17] | minimum inhibitory concentration (MIC) [19] | minimum inhibitory concentration (MIC) [20] | minimum inhibitory concentration (MIC) [23] | minimum inhibitory concentration (MIC) [24] | minimum inhibitory concentration (MIC) [25]
> 100 µg/mL: minimum inhibitory concentration (MIC) [1] | minimum inhibitory concentration (MIC) [4] | minimum inhibitory concentration (MIC) [5] | minimum inhibitory concentration (MIC) (Proteus vulgaris A9436) | minimum inhibitory concentration (MIC) [8] | minimum inhibitory concentration (MIC) [11] | minimum inhibitory concentration (MIC) (Escherichia coli NIHJ) | minimum inhibitory concentration (MIC) (Proteus mirabilis A9554) | minimum inhibitory concentration (MIC) [16] | minimum inhibitory concentration (MIC) [21]
50 µg/mL: minimum inhibitory concentration (MIC) [3]
0.4 µg/mL: minimum inhibitory concentration (MIC) (Micrococcus flavus D-12)
3.1 µg/mL: minimum inhibitory concentration (MIC) [7] | minimum inhibitory concentration (MIC) [9] | minimum inhibitory concentration (MIC) [10] | minimum inhibitory concentration (MIC) [14] | minimum inhibitory concentration (MIC) [15] | minimum inhibitory concentration (MIC) [18] | minimum inhibitory concentration (MIC) [22]
25 µg/mL: minimum inhibitory concentration (MIC) [2]
